# According to US20170327598A1, “SINGLE DOMAIN ANTIBODIES DIRECTED AGAINST INTRACELLULAR ANTIGENS” (SINGH MOLECULAR MEDICINE, LLC, priority 2014, published 2017):
# Where “and” joins values, the source holds several entries; their conditions need not be identical. Equal values may be shown once.
# Columns and labels:
# [1] = test system: VEGF-A production in ARPE-19 cells; experiment: VEGF-A ELISA in ARPE-19 retinal cells, Experiment 2;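 for all read-outs here: confluent ARPE-19 cells in 96-well plates, VEGF-A in culture supernatant quantified by ELISA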; format: cell-based, human; settings: for Mean Result (pg VEGF-A per mL) / pg VEGF-A per μg protein / Adj. Result (pg VEGF-A per mL): per well; for Adj. Result (pg VEGF-A per mL): adjusted for dilution; for Result (pg VEGF-A per mL): single reads; for pg VEGF-A per mL: based on collecting 0.1 ml of supernatant; for Mean (pg VEGF-A per mL): mean of Adj. Result, Wells 1-3; for Mean (pg VEGF-A per μg protein): mean of Wells 1-3; for Mean (pg VEGF-A per μg protein) / % Control: Experiment 2; for % Control: normalized for protein
# PANC-1 xenograft = experiment: PANC-1 xenograft, sdAb alone, Gemcitabine alone or combination, Example 19; settings: SBT-100 5 mg/kg BID, Gemcitabine 20 mg/kg, or both
substance,measurement,setting,value
"Anti-STAT3 VHH13: anti-STAT3 single domain antibody, SEQ ID NO:3; bacterially produced form referred to as SBT-100",Mean Result (pg VEGF-A per mL),"[1]; 1 μg/well, 12 Hr",25.82 pg VEGF-A per mL and 27.43 pg VEGF-A per mL and 32.23 pg VEGF-A per mL
same,pg VEGF-A per μg protein,"[1]; 1 μg/well, 12 Hr",2 pg VEGF-A per μg protein and 2.2 pg VEGF-A per μg protein and 2.7 pg VEGF-A per μg protein
same,Adj. Result (pg VEGF-A per mL),"[1]; 1 μg/well, 12 Hr",129.12 pg VEGF-A per mL and 137.14 pg VEGF-A per mL and 161.16 pg VEGF-A per mL
same,Result (pg VEGF-A per mL),"[1]; 1 μg/well, 12 Hr",26.74 pg VEGF-A per mL and 24.91 pg VEGF-A per mL and 26.62 pg VEGF-A per mL and 28.24 pg VEGF-A per mL and 33.18 pg VEGF-A per mL and 31.29 pg VEGF-A per mL
same,% Negative Control,"[1]; 1 μg/well, 24 Hr",106.8%
same,pg VEGF-A per mL,"[1]; 1 μg/well, 24 Hr",37.3 pg VEGF-A per mL and 31.2 pg VEGF-A per mL and 29.9 pg VEGF-A per mL
same,Mean (pg VEGF-A per mL),"[1]; 1 μg/well, 24 Hr",327.9 pg VEGF-A per mL
same,Mean (pg VEGF-A per μg protein),"[1]; 1 μg/well, 24 Hr",4.084 pg VEGF-A per μg protein
same,Mean Result (pg VEGF-A per mL),"[1]; 1 μg/well, 24 Hr",74.61 pg VEGF-A per mL and 62.42 pg VEGF-A per mL and 59.71 pg VEGF-A per mL
same,Adj. Result (pg VEGF-A per mL),"[1]; 1 μg/well, 24 Hr",373.06 pg VEGF-A per mL and 312.11 pg VEGF-A per mL and 298.74 pg VEGF-A per mL
same,Result (pg VEGF-A per mL),"[1]; 1 μg/well, 24 Hr",78.44 pg VEGF-A per mL and 70.78 pg VEGF-A per mL and 68.61 pg VEGF-A per mL and 56.23 pg VEGF-A per mL and 63.71 pg VEGF-A per mL and 55.71 pg VEGF-A per mL
same,pg VEGF-A per mL,"[1]; 1 μg/well, 48 Hr",87.6 pg VEGF-A per mL and 101.9 pg VEGF-A per mL and 111.9 pg VEGF-A per mL
same,Mean (pg VEGF-A per mL),"[1]; 1 μg/well, 48 Hr",1004.7 pg VEGF-A per mL
same,Mean (pg VEGF-A per μg protein),"[1]; 1 μg/well, 48 Hr",13.796 pg VEGF-A per μg protein
same,% Control,"[1]; 1 μg/well, 48 Hr",105.4%
same,Mean Result (pg VEGF-A per mL),"[1]; 1 μg/well, 48 Hr",175.22 pg VEGF-A per mL and 203.89 pg VEGF-A per mL and 223.71 pg VEGF-A per mL
same,pg VEGF-A per μg protein,"[1]; 1 μg/well, 48 Hr",12.4 pg VEGF-A per μg protein and 13.6 pg VEGF-A per μg protein and 15.3 pg VEGF-A per μg protein
same,Adj. Result (pg VEGF-A per mL),"[1]; 1 μg/well, 48 Hr",876.08 pg VEGF-A per mL and 1019.44 pg VEGF-A per mL and 1118.55 pg VEGF-A per mL
same,Result (pg VEGF-A per mL),"[1]; 1 μg/well, 48 Hr",168.84 pg VEGF-A per mL and 181.59 pg VEGF-A per mL and 195.75 pg VEGF-A per mL and 212.03 pg VEGF-A per mL and 225.75 pg VEGF-A per mL and 221.67 pg VEGF-A per mL
same,% Negative Control,"[1]; 10 μg/well, 12 Hr",107.8%
same,pg VEGF-A per mL,"[1]; 10 μg/well, 12 Hr",15.2 pg VEGF-A per mL and 12.2 pg VEGF-A per mL and 14.3 pg VEGF-A per mL
same,Mean (pg VEGF-A per mL),"[1]; 10 μg/well, 12 Hr",139.00 pg VEGF-A per mL
same,Mean (pg VEGF-A per μg protein),"[1]; 10 μg/well, 12 Hr",2.148 pg VEGF-A per μg protein
same,% Control,"[1]; 10 μg/well, 12 Hr",113.7%
same,Mean Result (pg VEGF-A per mL),"[1]; 10 μg/well, 12 Hr",30.43 pg VEGF-A per mL and 24.41 pg VEGF-A per mL and 28.58 pg VEGF-A per mL
same,pg VEGF-A per μg protein,"[1]; 10 μg/well, 12 Hr",2.5 pg VEGF-A per μg protein and 1.9 pg VEGF-A per μg protein and 2 pg VEGF-A per μg protein
same,Adj. Result (pg VEGF-A per mL),"[1]; 10 μg/well, 12 Hr",152.14 pg VEGF-A per mL and 122.07 pg VEGF-A per mL and 142.92 pg VEGF-A per mL
same,Result (pg VEGF-A per mL),"[1]; 10 μg/well, 12 Hr",29.66 pg VEGF-A per mL and 31.2 pg VEGF-A per mL and 24.52 pg VEGF-A per mL and 24.31 pg VEGF-A per mL and 27.98 pg VEGF-A per mL and 29.18 pg VEGF-A per mL
same,% Negative Control,"[1]; 10 μg/well, 24 Hr",1142%
same,pg VEGF-A per mL,"[1]; 10 μg/well, 24 Hr",28 pg VEGF-A per mL and 34.8 pg VEGF-A per mL and 42.4 pg VEGF-A per mL
same,Mean (pg VEGF-A per mL),"[1]; 10 μg/well, 24 Hr",350.7 pg VEGF-A per mL
same,Mean (pg VEGF-A per μg protein),"[1]; 10 μg/well, 24 Hr",5.290 pg VEGF-A per μg protein
same,% Control,"[1]; 10 μg/well, 24 Hr",119.8%
same,Mean Result (pg VEGF-A per mL),"[1]; 10 μg/well, 24 Hr",55.95 pg VEGF-A per mL and 69.61 pg VEGF-A per mL and 84.84 pg VEGF-A per mL
same,pg VEGF-A per μg protein,"[1]; 10 μg/well, 24 Hr",4.4 pg VEGF-A per μg protein and 5.4 pg VEGF-A per μg protein and 6.1 pg VEGF-A per μg protein
same,Adj. Result (pg VEGF-A per mL),"[1]; 10 μg/well, 24 Hr",279.74 pg VEGF-A per mL and 348.06 pg VEGF-A per mL and 424.20 pg VEGF-A per mL
same,Result (pg VEGF-A per mL),"[1]; 10 μg/well, 24 Hr",57.85 pg VEGF-A per mL and 54.04 pg VEGF-A per mL and 72.69 pg VEGF-A per mL and 66.53 pg VEGF-A per mL and 84.97 pg VEGF-A per mL and 84.71 pg VEGF-A per mL
same,% Negative Control,"[1]; 10 μg/well, 48 Hr",99.3%
same,pg VEGF-A per mL,"[1]; 10 μg/well, 48 Hr",83.7 pg VEGF-A per mL and 95.6 pg VEGF-A per mL and 98.3 pg VEGF-A per mL
same,Mean (pg VEGF-A per mL),"[1]; 10 μg/well, 48 Hr",925.1 pg VEGF-A per mL
same,Mean (pg VEGF-A per μg protein),"[1]; 10 μg/well, 48 Hr",13.696 pg VEGF-A per μg protein
same,% Control,"[1]; 10 μg/well, 48 Hr",104.6%
same,Mean Result (pg VEGF-A per mL),"[1]; 10 μg/well, 48 Hr",191.17 pg VEGF-A per mL and 196.56 pg VEGF-A per mL and 167.34 pg VEGF-A per mL
same,pg VEGF-A per μg protein,"[1]; 10 μg/well, 48 Hr",11.8 pg VEGF-A per μg protein and 14 pg VEGF-A per μg protein and 15.3 pg VEGF-A per μg protein
same,Adj. Result (pg VEGF-A per mL),"[1]; 10 μg/well, 48 Hr",955.85 pg VEGF-A per mL and 982.81 pg VEGF-A per mL and 836.69 pg VEGF-A per mL
same,Result (pg VEGF-A per mL),"[1]; 10 μg/well, 48 Hr",194.18 pg VEGF-A per mL and 188.16 pg VEGF-A per mL and 194.77 pg VEGF-A per mL and 198.36 pg VEGF-A per mL and 158.85 pg VEGF-A per mL and 175.83 pg VEGF-A per mL
same,VEGF-A as % of control,"[1]; 100 μg/mL, 12 hour treatment",20.1%
same,VEGF-A as % of control,"[1]; 100 μg/mL, 24 hour treatment",7.5%
same,pg VEGF-A/m protein as % of the negative control,"[1]; 100 μg/mL, 48 hours",11%
same,% Negative Control,"[1]; 100 μg/well, 12 Hr",18.5%
same,pg VEGF-A per mL,"[1]; 100 μg/well, 12 Hr",2.4 pg VEGF-A per mL and 2.3 pg VEGF-A per mL
same,Mean (pg VEGF-A per mL),"[1]; 100 μg/well, 12 Hr",23.8 pg VEGF-A per mL
same,Mean (pg VEGF-A per μg protein),"[1]; 100 μg/well, 12 Hr",0.4 pg VEGF-A per μg protein
same,Mean Result (pg VEGF-A per mL),"[1]; 100 μg/well, 12 Hr",4.86 pg VEGF-A per mL and 4.58 pg VEGF-A per mL
same,pg VEGF-A per μg protein,"[1]; 100 μg/well, 12 Hr",0.4 pg VEGF-A per μg protein
same,Adj. Result (pg VEGF-A per mL),"[1]; 100 μg/well, 12 Hr",24.27 pg VEGF-A per mL and 22.91 pg VEGF-A per mL
same,Result (pg VEGF-A per mL),"[1]; 100 μg/well, 12 Hr",5.09 pg VEGF-A per mL and 4.62 pg VEGF-A per mL and 5.3 pg VEGF-A per mL and 4.41 pg VEGF-A per mL and 4.83 pg VEGF-A per mL and 4.33 pg VEGF-A per mL
same,% Negative Control,"[1]; 100 μg/well, 24 Hr",6.3%
same,Mean (pg VEGF-A per mL),"[1]; 100 μg/well, 24 Hr",19.2 pg VEGF-A per mL
same,Mean (pg VEGF-A per μg protein),"[1]; 100 μg/well, 24 Hr",0.329 pg VEGF-A per μg protein
same,% Control,"[1]; 100 μg/well, 24 Hr",7.5%
same,pg VEGF-A per μg protein,"[1]; 100 μg/well, 24 Hr",0.5 pg VEGF-A per μg protein and 0.3 pg VEGF-A per μg protein
same,% Negative Control,"[1]; 100 μg/well, 48 Hr",3.7%
same,pg VEGF-A per mL,"[1]; 100 μg/well, 48 Hr",3.9 pg VEGF-A per mL
same,Mean (pg VEGF-A per mL),"[1]; 100 μg/well, 48 Hr",35.6 pg VEGF-A per mL
same,Mean (pg VEGF-A per μg protein),"[1]; 100 μg/well, 48 Hr",1.458 pg VEGF-A per μg protein
same,% Control,"[1]; 100 μg/well, 48 Hr",11.1%
same,Mean Result (pg VEGF-A per mL),"[1]; 100 μg/well, 48 Hr",5.85 pg VEGF-A per mL and 7.78 pg VEGF-A per mL and 7.76 pg VEGF-A per mL
same,pg VEGF-A per μg protein,"[1]; 100 μg/well, 48 Hr",1.4 pg VEGF-A per μg protein and 1.6 pg VEGF-A per μg protein
same,Adj. Result (pg VEGF-A per mL),"[1]; 100 μg/well, 48 Hr",29.23 pg VEGF-A per mL and 38.88 pg VEGF-A per mL and 38.78 pg VEGF-A per mL
same,Result (pg VEGF-A per mL),"[1]; 100 μg/well, 48 Hr",8.03 pg VEGF-A per mL and 5.86 pg VEGF-A per mL and 5.83 pg VEGF-A per mL and 7.83 pg VEGF-A per mL and 7.72 pg VEGF-A per mL and 7.49 pg VEGF-A per mL
same,TUMOR VOLUMES (mm^3) Mean,PANC-1 xenograft; Day 1,107.34 mm^3
same,TUMOR VOLUMES (mm^3) Mean,PANC-1 xenograft; Day 5,145.86 mm^3
same,TUMOR VOLUMES (mm^3) Mean,PANC-1 xenograft; Day 8,149.12 mm^3
same,% INHIBITION OF CONTROL (tumor growth),PANC-1 xenograft; Day 12,20.70%
same,TUMOR VOLUMES (mm^3) Mean,PANC-1 xenograft; Day 12,188.78 mm^3
same,TUMOR VOLUMES (mm^3) Mean,PANC-1 xenograft; Day 15,233.25 mm^3
same,% INHIBITION OF CONTROL (tumor growth),PANC-1 xenograft; Day 19,18.37%
same,TUMOR VOLUMES (mm^3) Mean,PANC-1 xenograft; Day 19,332.68 mm^3
same,% INHIBITION OF CONTROL (tumor growth),PANC-1 xenograft; Day 22,19.17%
same,TUMOR VOLUMES (mm^3) Mean,PANC-1 xenograft; Day 22,390.59 mm^3
